Source: patent US20260250318A1, “COMPOSITIONS AND METHODS FOR CROSSING THE BLOOD BRAIN BARRIER” (VOYAGER THERAPEUTICS, INC., priority 2022, published 2026)

Legend:
[1] = system: brain; experiment: Matured TTM-001 and TTM-002 variants, NGS enrichment in mouse brain; assay type: in vivo, mice; conditions: relative to AAV9 control
[2] = system: brains, heart, liver, muscle, and DRG of the NHPs; experiment: Maturation of TTM-001 and TTM-002 capsids, NGS enrichment in NHP tissues; assay type: in vivo; conditions: relative to AAV9 control
Outline: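 Variants carry mutations within and flanking the loop IV peptide insert: positions 450–466 were triplet-randomized, while positions 449–466 received low-frequency point mutations. The combined pool went into two NHPs, and each peptide was scored by NGS enrichment ratio against AAV9.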

[3] = NGS fold-enrichment, brain of mice
[4] = NGS fold-enrichment, DRG of NHPs
[5] = NGS fold-enrichment, RNA, brain of NHPs
[6] = NGS fold-enrichment, heart of NHPs
[7] = NGS fold-enrichment, liver DNA of NHPs
[8] = NGS fold-enrichment, liver RNA of NHPs
[9] = NGS fold-enrichment, muscle of NHPs
[10] = NGS fold-enrichment of matured AAV capsid variants, NHP brain, RNA
[11] = NGS fold-enrichment, mouse brain
[12] = NGS fold-enrichment of RNA, NHP brain
[13] = NGS fold-enrichment, NHP liver DNA
[14] = NGS fold-enrichment, NHP liver RNA
[15] = NGS fold-enrichment, NHP muscle

Sequence	Fold Enrichment relative to AAV9, Brain (Mouse) ([1]; mouse brain)	Fold Enrichment relative to AAV9, Brain (NHP) [2, 10]	Fold Enrichment relative to AAV9, DRG (NHP) ([2]; NHP DRG)	Fold Enrichment relative to AAV9, Heart (NHP) ([2]; NHP heart)	Fold Enrichment relative to AAV9, Liver DNA (NHP) ([2]; NHP liver, DNA)	Fold Enrichment relative to AAV9, Liver RNA (NHP) ([2]; NHP liver, RNA)	Fold Enrichment relative to AAV9, Muscle (NHP) ([2]; NHP muscle)	Fold Enrichment relative to AAV9, Brain (Mouse) [1, 11]	Fold Enrichment relative to AAV9, Brain (NHP) [2, 12]	Fold Enrichment relative to AAV9, DRG (NHP) ([2]; NGS fold-enrichment, NHP DRG)	Fold Enrichment relative to AAV9, Heart (NHP) ([2]; NGS fold-enrichment, NHP heart)	Fold Enrichment relative to AAV9, Liver DNA (NHP) [2, 13]	Fold Enrichment relative to AAV9, Liver RNA (NHP) [2, 14]	Fold Enrichment relative to AAV9, Muscle (NHP) [2, 15]	also measured
KNINGSGSPHSKAQNQQT (KNTNGSGSPHSKAQNQQT)	–	–	–	–	–	–	–	–	–	–	–	–	–	–	Fold Enrichment relative to AAV9, Brain (Mouse) [1, 3]: 89.719 fold; Fold Enrichment relative to AAV9, DRG (NHP) [2, 4]: 0.000 fold; Fold Enrichment relative to AAV9, Brain (NHP) [2, 5]: 78.445 fold; Fold Enrichment relative to AAV9, Heart (NHP) [2, 6]: 0.000 fold; Fold Enrichment relative to AAV9, Liver DNA (NHP) [2, 7]: 0.177 fold; Fold Enrichment relative to AAV9, Liver RNA (NHP) [2, 8]: 0.571 fold; Fold Enrichment relative to AAV9, Muscle (NHP) [2, 9]: 0.000 fold
KNINGSGSPHSKAQSQQT	–	–	–	–	–	–	–	–	–	–	–	–	–	–	Fold Enrichment relative to AAV9, Brain (Mouse) [1, 3]: 57.432 fold; Fold Enrichment relative to AAV9, DRG (NHP) [2, 4]: 0.000 fold; Fold Enrichment relative to AAV9, Brain (NHP) [2, 5]: 73.757 fold; Fold Enrichment relative to AAV9, Heart (NHP) [2, 6]: 0.000 fold; Fold Enrichment relative to AAV9, Liver DNA (NHP) [2, 7]: 0.041 fold; Fold Enrichment relative to AAV9, Liver RNA (NHP) [2, 8]: 0.000 fold; Fold Enrichment relative to AAV9, Muscle (NHP) [2, 9]: 0.000 fold
KNNLGSGSPHSKAQNQQT	102.408 fold	50.670 fold	0.000 fold	0.019 fold	0.121 fold	0.406 fold	0.000 fold	–	–	–	–	–	–	–	–
KNSIGSGSPHSKAQNQQT	97.381 fold	57.101 fold	0.000 fold	0.052 fold	0.074 fold	0.083 fold	0.000 fold	–	–	–	–	–	–	–	–
KNSLGSGSPHSKAQNQQT	101.942 fold	56.621 fold	0.000 fold	0.028 fold	0.162 fold	0.308 fold	0.000 fold	–	–	–	–	–	–	–	–
KNTNGSGSPHSKAQNQQT	–	–	–	–	–	–	–	89.719 fold	78.445 fold	0.000 fold	0.000 fold	0.177 fold	0.571 fold	0.000 fold	–
KNVNGSGSPHSKAQNQQT	53.379 fold	58.481 fold	0.000 fold	0.000 fold	0.166 fold	0.917 fold	0.000 fold	–	–	–	–	–	–	–	–
KNVVGHDSPHKSGQNQQT	–	–	–	–	–	–	–	8.077 fold	75.330 fold	0.000 fold	0.024 fold	0.049 fold	0.063 fold	0.000 fold	–
KQGEGSGSPHSKAQNQQT	135.300 fold	58.752 fold	0.000 fold	0.000 fold	0.151 fold	0.000 fold	0.000 fold	–	–	–	–	–	–	–	–
KSDIGSGSPHSKAQNQQT	107.342 fold	57.592 fold	0.000 fold	0.000 fold	0.128 fold	0.844 fold	0.000 fold	–	–	–	–	–	–	–	–
KSDKGSGSPHSKAQNQQT	146.566 fold	58.248 fold	0.000 fold	0.000 fold	0.166 fold	0.076 fold	0.000 fold	–	–	–	–	–	–	–	–
KSDQGSGSPHSKAQNQQT	–	–	–	–	–	–	–	151.911 fold	80.076 fold	0.000 fold	0.000 fold	0.124 fold	0.993 fold	0.000 fold	Fold Enrichment relative to AAV9, Brain (Mouse) [1, 3]: 151.911 fold; Fold Enrichment relative to AAV9, DRG (NHP) [2, 4]: 0.000 fold; Fold Enrichment relative to AAV9, Brain (NHP) [2, 5]: 80.076 fold; Fold Enrichment relative to AAV9, Heart (NHP) [2, 6]: 0.000 fold; Fold Enrichment relative to AAV9, Liver DNA (NHP) [2, 7]: 0.124 fold; Fold Enrichment relative to AAV9, Liver RNA (NHP) [2, 8]: 0.993 fold; Fold Enrichment relative to AAV9, Muscle (NHP) [2, 9]: 0.000 fold
KSEKGSGSPHSKAQNQQT	158.931 fold	58.566 fold	0.000 fold	0.010 fold	0.059 fold	1.601 fold	0.011 fold	–	–	–	–	–	–	–	–
KSELGHDSPHKSGQNQQT	–	–	–	–	–	–	–	13.285 fold	107.059 fold	0.000 fold	0.005 fold	0.055 fold	0.000 fold	0.000 fold	–
KSELGSGSPHSKAQNQQT	120.521 fold	55.997 fold	0.000 fold	0.005 fold	0.239 fold	0.881 fold	0.000 fold	–	–	–	–	–	–	–	–
KSIKGNGSPHSKAQNQQT	–	–	–	–	–	–	–	90.251 fold	75.196 fold	0.000 fold	0.000 fold	0.000 fold	0.000 fold	0.000 fold	Fold Enrichment relative to AAV9, Brain (Mouse) [1, 3]: 90.251 fold; Fold Enrichment relative to AAV9, DRG (NHP) [2, 4]: 0.000 fold; Fold Enrichment relative to AAV9, Brain (NHP) [2, 5]: 75.196 fold; Fold Enrichment relative to AAV9, Heart (NHP) [2, 6]: 0.000 fold; Fold Enrichment relative to AAV9, Liver DNA (NHP) [2, 7]: 0.000 fold; Fold Enrichment relative to AAV9, Liver RNA (NHP) [2, 8]: 0.000 fold; Fold Enrichment relative to AAV9, Muscle (NHP) [2, 9]: 0.000 fold
